Test results reported in patent US9353075B2, “Disubstituted beta-lactones as inhibitors of N-acylethanolamine acid amidase (NAAA)” (The Regents of the University of California, priority 2011, dated 2016).

Columns and labels:
[1] = Chemical stability in PBS buffer pH 7.4; assay type: physicochemical; conditions: phosphate-buffered saline, 0.01M PBS pH 7.4, 37° C., read-out: Stability in PBS buffer, pH 7.4 t1/2
Experimental: Chemical stability of select compounds was evaluated under physiological pH conditions (0.01M Phosphate-Buffered Saline, pH 7.4) for up to 24 h. Stock solutions of each compound (10 mM) were prepared freshly in DMSO. Each compound was incubated at a final concentration of 10 μM (1% DMSO) in pre-heated buffer (0.01M Phosphate-Buffered Saline (PBS), pH 7.4 at 37° C.). The sample solutions were divided into aliquots in glass vials (pre-heated at 37° C.) for each time point. The samples were maintained at 37° C. in the UPLC/MS Autosampler during the study (no shaking). A reference solution of each compound (final concentration: 10 μM at 1% DMSO) in pre-heated CH3CN (37° C.) was prepared from the stock solutions (10 mM in DMSO). The reference solutions were maintained at 37° C. in the UPLC/MS Autosampler during the study (no shaking). An internal standard (100 nM) was added to the sample and reference solutions. For each time point, the samples were analyzed directly by LC/MS without any further sample preparation. The samples were analyzed (triplicate injection) by monitoring the MS trace by Multiple Reaction Monitoring (MRM). The compound concentration (expressed as %) was calculated by dividing the peak area at each time point by the peak area at t=0 min. The reference solution was analyzed at the beginning (t=0 min.), and at the end of the study (t=24 h). The apparent half-lives (t1/2) of the disappearance of compound were calculated by a one-phase decay equation using a non-linear regression of compound concentration versus time.
The analyses were performed on a Waters ACQUITY UPLC/MS TQD system consisting of a TQD (Triple Quadropole Detector) Mass Spectrometer equipped with an Electrospray Ionization interface and a Photodiode Array Detector. The analyses were run on an ACQUITY UPLC BEH C18 1.7 μm 2.1×50 mm column with a VanGuard BEH C18 1.7 μm pre-column at 40° C. The mobile phase was 0.1% HCOOH in H2O (A) and 0.1% HCOOH in CH3CN (B) using a linear gradient: 0-0.2 min.: 5% B, 0.2-2.2 min.: 5-95% B, 2.2-2.3 min.: 95-5% B, 2.3-3 min.: 5% B with flow rate at 0.5 mL/min. […]

Acid Ceramidase (AC) = Acid Ceramidase (AC) (Rattus norvegicus (Rat), UniProt Q6P7S1); experiment: Acid ceramidase inhibition, recombinant rat AC, LC-MS; assay type: biochemical; conditions: read-out: r-AC % inhib. @ 10 μM
Experimental: The PCR (High Fidelity PCR Master, Roche) product was subcloned into a pEF6-[…] vector (Invitrogen) to construct a mammalian expression vector encoding […]-tagged rat AC. HEK293 cells were transfected with pEF6-rAC-[…] using Super-Fect reagent (Qiagen) and screened with G418 (0.3 mg/mL). Cells were suspended in 20 mM Tris HCl (pH 7.5) containing 0.32M sucrose, sonicated and centrifuged at 800×g for 15 minutes at 4° C. The supernatants were centrifuged again at 12,000×g for 30 minutes at 4° C. The pellets were suspended in phosphate-buffered saline (PBS) and subjected to 2 freeze-thaw cycles at -80° C. The suspensions were centrifuged at 105,000×g for 1 hour at 4° C. The supernatants containing recombinant AC were kept at -80° C. until use. Protein concentration was measured using the bicinchoninic acid (BCA) assay (Pierce). […] Reactions were stopped by addition of a mixture of chloroform/methanol (2:1, vol/vol) containing 1 nmol of heptadecanoic acid (HDA; NuChek Prep). […] HDA was eluted on an XDB Eclipse C18 column isocratically at 2.2 mL/min for 1 minute with a solvent mixture of 95% methanol and 5% water, both containing 0.25% acetic acid and 5 mM ammonium acetate. The column temperature was 50° C. Electrospray ionization (ESI) was in the negative mode, capillary voltage as 4 kV, and fragmentor voltage was 100 V. N2 was used as drying gas at a flow rate of 13 L/min and a temperature of 350° C. Nebulizer pressure was set at 60 psi. We monitored [M-H]- in the selected-ion monitoring (SIM) mode using HDA as internal standard. Calibration curves were generated using commercial lauric acid (Nu-Chek Prep; m/z=199).

r-NAAA = r-NAAA (Rattus norvegicus (Rat), UniProt Q5KTC7); experiment: r-NAAA inhibition, rat lung lysosomal NAAA preparation, UPLC/MS; assay type: biochemical
Procedure, shortened: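 Substrate was 50 μM heptadecenoylethanolamide, incubated 30 min at 37 °C after a 30 min compound preincubation at pH 4.5 with 1% Triton-X and 3 mM DTT. The enzyme source was rat lung lysosomal preparation. IC50 came from curve fitting of reduced heptadecenoic acid product, measured by negative-mode UPLC/MS versus vehicle.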

Sequence of Acid Ceramidase (AC) (Q6P7S1 21-394): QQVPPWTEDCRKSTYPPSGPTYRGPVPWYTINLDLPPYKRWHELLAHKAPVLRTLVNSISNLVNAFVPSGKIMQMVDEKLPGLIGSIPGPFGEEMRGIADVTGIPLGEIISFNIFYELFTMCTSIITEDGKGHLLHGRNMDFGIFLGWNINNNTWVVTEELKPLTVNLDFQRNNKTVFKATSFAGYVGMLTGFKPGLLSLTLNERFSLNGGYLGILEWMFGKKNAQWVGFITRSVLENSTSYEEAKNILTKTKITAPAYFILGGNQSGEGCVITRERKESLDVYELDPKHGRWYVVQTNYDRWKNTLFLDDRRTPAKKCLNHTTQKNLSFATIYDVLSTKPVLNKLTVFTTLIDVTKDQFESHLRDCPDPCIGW
Sequence of r-NAAA (Q5KTC7 34-362): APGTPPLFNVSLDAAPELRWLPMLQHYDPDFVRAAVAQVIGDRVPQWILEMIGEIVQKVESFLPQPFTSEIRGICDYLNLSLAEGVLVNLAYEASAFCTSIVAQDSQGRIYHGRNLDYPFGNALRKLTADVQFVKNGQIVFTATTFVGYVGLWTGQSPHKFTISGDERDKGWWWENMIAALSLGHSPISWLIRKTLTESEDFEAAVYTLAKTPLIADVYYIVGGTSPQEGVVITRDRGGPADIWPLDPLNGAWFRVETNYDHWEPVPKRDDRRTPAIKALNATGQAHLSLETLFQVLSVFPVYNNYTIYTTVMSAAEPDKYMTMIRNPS

C[C@@H]1OC(=O)[C@@H]1NC(=O)CCCCCCc1ccccc1 [corresponding amide analog, reference compound]
half-life at 10 μM [1]: 1.05 h | inhibition at 10 µM (Acid Ceramidase (AC)): < 10% | IC50 (r-NAAA): 0.54 µM
